Earlier results in article PMC8198792, “Prediction of Anticancer Peptides with High Efficacy and Low Toxicity by Hybrid Model Based on 3D Structure of Peptides” (International Journal of Molecular Sciences, 2021).
Where two headings read alike, the source gives them in different places.

Tested on: cancer cell lines
Set-up: method as in 6 sources, ref CancerPPD [45] and SATPdb ||| ref CancerPPD/SATPdb ||| ref CancerPPD, SATPdb, Swissprot (PDB) ||| ref CancerPPD/SATPdb/Swissprot(PDB) ||| ref CancerPPD / SATPdb ||| ...
Settings: cited from earlier work
Excerpt: Supplement ijms-22-05630-s001.zip/ACPs(seguence).xlsx, sheet "D1" | column: Activity || Supplement ijms-22-05630-s001.zip/ACPs(seguence).xlsx, sheet "D2" | column: Activity || Supplement ijms-22-05630-s001.zip/ACPs(seguence).xlsx, sheet "D3" | column: Activity || (+ 2 further places)

[1] = ACPs dataset D1, label 1 = ACP, 0 = non-ACP (non-anticancer AMPs from SATPdb), ref CancerPPD/SATPdb
[2] = ACPs dataset D4 (sheet "D4"), label 1 = ACP (CancerPPD ID), 0 = non-ACP (non-anticancer AMP, SATPdb ID), ref CancerPPD [45] and SATPdb
[3] = ACPs dataset D1, 1 = ACP (positive), 0 = non-ACP (negative), label taken from databases, ref CancerPPD [45] and SATPdb
[4] = ACPs dataset D4 (sheet "D4"), label 1 = ACP, experimentally validated ACPs, ref CancerPPD [45] and SATPdb
[5] = ACPs dataset D5 (sheet "D5"), label 1 = ACP (positive set), sequences with CancerPPD/SATPdb ID, ref CancerPPD, SATPdb
[6] = ACPs dataset sheet D2, 1 = ACP (CancerPPD/SATPdb ID), 0 = non-ACP (Swissprot/PDB ID), ref CancerPPD, SATPdb, Swissprot (PDB)
[7] = ACPs dataset D3 (supplement sheet "D3"), 1 = ACP, 0 = non-ACP, ref CancerPPD [45] and SATPdb
[8] = ACPs dataset D5 (sheet "D5"), label 1 = ACP (positive set), 0 = non-ACP (negative set), ref CancerPPD [45] and SATPdb
[9] = ACPs dataset D4 (sheet "D4"), label 1 = ACP, 0 = non-ACP, ref CancerPPD / SATPdb
[10] = ACPs dataset D2 (supplement ACPs(seguence).xlsx, sheet D2), dataset label 1/0 (ACP / non-ACP), entries identified by Swissprot(PDB ID), ref CancerPPD/SATPdb/Swissprot(PDB)
[11] = ACPs dataset D3 (sheet "D3"), label 1 = ACP, 0 = non-ACP, ref CancerPPD/SATPdb
[12] = ACPs dataset D5, sheet "D5", label 1 = ACP, 0 = non-ACP, ref CancerPPD [45] and SATPdb

Substance	Activity [2]	Activity [3]	Activity [4]	Activity [5]	Activity [6]	also measured
GTPCGESCVYIPCFTAVVGCTCKDKVCYLN [satpdb10441]	0					Activity [1]: 0
INGSLDKRLLPDVET [satpdb28594]		1	1	1	1	
GLFSKFNKKKIKSGLIKIIKTAGKEAGLEALRTGIDVIGCKIKGEC [satpdb11080]	0	0				
KWKSFLKTFKSLKkTVLHTLLKAISS [compound 3760]	1					Activity [7]: 1; Activity [8]: 1
KWkSFLkTFkSLKkTVLHTLLkAISS [compound 3764]	1					Activity [7]: 1; Activity [8]: 1
LVRGCWTKSYPPKPCFVR [satpdb11395]	0					Activity [1]: 0
LHCPALVTYNTDTFESMPNPEGRYTFGASCV [satpdb27573]		1	1	1	1	
GTFPCGESCVFIPCLTSAIGCSCKSKVCYKN [compound 4418]		1	1	1	1	
GLFDVIKKVASVIKGL [compound 4075]	1					Activity [7]: 1; Activity [8]: 1
GLFTLIKGAAKLIGKTVPKKQARLGMNLWLVKLPTNVKT [satpdb12795]						Activity [1]: 0; Activity [9]: 0
FFHHIFRGIVHVGKTIHRLVTG [compound 4437]		1	1	1	1	
EDGLHPRLCSC [satpdb11408]	0					Activity [1]: 0
GPWERCTAQCGGGIQARRR [satpdb29089]		1	1	1	1	
GLFVGLAKVAAHNNPAIAEHFQA [compound 4390]		1	1	1	1	
TNYGNGVGVPDAIMAGIIKLIFIFNIRQGYNFGKKAT [satpdb11292]	0	0				
GTWDDIGQGIGRVAYWVGKAMGNMSDVNQASRINRKKKH [2JPJ NMR - A 1-39]						Activity [10]: 0; Activity [8]: 0
LPRFSTMPFIYCNINEVCHY [satpdb13486]		1	1	1	1	
ANIKLSVQMKLFKRHLKWKIIVKLNDGRELSLDA [satpdb18078]		1	1	1	1	
GIFSKFGGKAIKNLFIKGAKNIGKEVGMDVIRTGIDVAGCKIKGEC [satpdb10976]	0	0				
YRGGYTGPIPRPPPIGRPPLRLVVCACYRLS [satpdb12661]	0					Activity [1]: 0

Substance	Activity [2]	Activity [3]	Activity [4]	Activity [5]	Activity [6]	also measured
GSIPCGESCVFIPCISSVIGCACKSKVCYKN [compound 4374]		1	1	1	1	
LKLGTLVNLAKKIL [satpdb13705]						Activity [11]: 0; Activity [9]: 0; Activity [12]: 0
ALLHHGLNCAKGVLA [satpdb12694]	0					Activity [1]: 0
GFGMALOLLOOVL [compound 3597]	1					Activity [7]: 1; Activity [8]: 1
MVQNDFVDSYDVTMLLQDDDGKQYYEYHKGLSLSDFEVLYGNTADEIIKLRLDKVL [2LE2 NMR - A/B 1-56]						Activity [10]: 0; Activity [12]: 0
FFGTALKIAANVLPTAICKILKKC [satpdb13355]						Activity [1]: 0; Activity [9]: 0
ERRCPRILKQCKRDSDCPGECICMAHGFCG [1EWU model - I 1-30]					0	Activity [8]: 0
SKWSECSRTCGGGVKFQER [satpdb16830]		1	1	1	1	
KILRGVAKKILRTFLRRISKDILTGKK [compound 3329]	1					Activity [7]: 1; Activity [8]: 1
FLPLIASVAANLAPKIICKITKTC [satpdb12152]	0					Activity [1]: 0
GVGDLIRKAV SVIKNIV [6GS3 X-ray 1.45 A/B 1-17]					0	Activity [8]: 0
GCPRILMRCKQDSDCLAGCVCGPNGFCGSP [1H9H X-ray 1.50 I 1-30]					0	Activity [8]: 0
SPWSSCSVTCGDGVITRIR [satpdb28070]		1	1	1	1	
GIFSSRKCKTPSKTFKGYCTRDSNCDTSCRYEGYPAGD [satpdb10659]	0	0				
rrrrrrrrGEDIIRNIARHLAQVGDSMDR [compound 4227]	1					Activity [7]: 1; Activity [8]: 1
KWKSFlKTFKSlKKTVlHTlLKAISS [compound 3772]	1					Activity [7]: 1; Activity [8]: 1
VKLLVyPLKVKLyP [satpdb13876]						Activity [11]: 0; Activity [9]: 0; Activity [12]: 0
EGVRNHVTCRINRGFCVPIRCPGRTRQIGTCFGPRIKCCRSW [satpdb13124]						Activity [1]: 0; Activity [9]: 0
DLRFWNPREKLPLPTLPPFNPKPIYIDMGNRY [satpdb12945]						Activity [1]: 0; Activity [9]: 0
GVLDTFKDVAIGVAKGAGTGVLKALLCKLDKSC [satpdb13223]						Activity [1]: 0; Activity [9]: 0

Substance	Activity [2]	Activity [3]	Activity [4]	Activity [5]	Activity [6]	also measured
RGGRLCYARRRFAVCVGR [satpdb14374]						Activity [11]: 0; Activity [9]: 0; Activity [12]: 0
PLLQATLGGGS [compound 3726]		1	1	1	1	
KAFDITYVRLKF [satpdb20842]		1	1	1	1	
KRRHWFPLSFQEFLEQLRRFRDQLPFP [satpdb12966]						Activity [1]: 0; Activity [9]: 0
GIFSLFKAGAKFFGKHLLKQAGKAGAEHLACKATNQC [satpdb10483]	0	0				
FLPIIAGIAAKFLPKIFCTISKKC [compound 4359]		1	1	1	1	
IPCGESCVWIPCISGMFGCSCKDKVCYS [compound 4368]		1	1	1	1	
KSSAYSLQMGATAIKQVKKLFKKWGW [compound 4448]		1	1	1	1	
PIDERLRTCERLSYP [satpdb14897]		1	1	1	1	
GIFSLIKGAAKLITKTVAKEAGKTGLELMACKVTNQC [satpdb12414]	0					Activity [1]: 0
MVEPLLSGIVLGLIVVTLAGLFYAAYKQYKRPNELGG [4OGQ X-ray 2.50,G,1-37]						Activity [10]: 0; Activity [8]: 0
ATYYGNGLYCNKQKCWVDWNKASREIGKIIVNGWVQHGPWAPR [satpdb12250]	0					Activity [1]: 0
KWKSFIKKAKTSFLHSAKKF [satpdb14273]						Activity [11]: 0; Activity [9]: 0; Activity [12]: 0
GKWMSLLKHILK [compound 3649]	1					Activity [7]: 1; Activity [8]: 1
GLFAVIKKVAAVIRRL [compound 4129]	1					Activity [7]: 1; Activity [8]: 1
PAWRKAFRAAWRMLKKAA [compound 1610]		1	1	1	1	
FLGMIPKLIKKLIKAFK [compound 3135]			1	1		Activity [7]: 1
FISAIASFLGKFL [satpdb11448]	0					Activity [1]: 0
ILPILSLIGGLLGK [compound 4439]		1	1	1	1	
RRPKGRGKRRREKQRPTDCHLCGDAVPRR [satpdb17014]		1	1	1	1	
